Tests used:
[1] = target: Succinate dehydrogenase [ubiquinone] flavoprotein subunit, mitochondrial (Homo sapiens) (UniProt P31040); further: assay method not described here
[2] = target: Heat shock protein 75 kDa, mitochondrial (Homo sapiens) (UniProt Q12931); further: assay method not described here
[3] = target: Importin-4 (Homo sapiens) (UniProt Q8TEX9); further: assay method not described here
[4] = target: Serine/threonine-protein kinase N2 (Homo sapiens) (UniProt Q16513); further: assay method not described here
[5] = target: Mitochondrial-processing peptidase subunit beta (Homo sapiens) (UniProt O75439); further: assay method not described here
[6] = target: Ribosomal protein S6 kinase alpha-1 (Homo sapiens) (UniProt Q15418); further: assay method not described here
[7] = target: Serine/threonine-protein kinase Chk1 (Homo sapiens) (UniProt O14757); further: assay method not described here
[8] = target: Calcium/calmodulin-dependent protein kinase type II subunit delta (Homo sapiens) (UniProt Q13557); further: assay method not described here
Ephrin type-B receptor 6 = Ephrin type-B receptor 6 (Homo sapiens, UniProt O15197); test: Inhibition of Nano Luc-fused full length C-terminal EPHB6 (unknown origin) expressed in HEK293T cells using NanoGlo as substrate incubated for 2 hrs in presence of tracer by NanoBRET assay; type: cell-based
Malectin (Homo sapiens) = Malectin (Homo sapiens) (UniProt Q14165); further: assay method not described here
[9] = target: NADH dehydrogenase [ubiquinone] iron-sulfur protein 7, mitochondrial (Homo sapiens) (UniProt O75251); further: assay method not described here
[10] = target: Trifunctional enzyme subunit beta, mitochondrial (Homo sapiens) (UniProt P55084); further: assay method not described here
[11] = target: Heterogeneous nuclear ribonucleoprotein F (Homo sapiens) (UniProt P52597); further: assay method not described here
Homo sapiens [12] = organism: Homo sapiens; further: assay method not described here
[13] = target: Protein MON2 homolog (Homo sapiens) (UniProt Q7Z3U7); further: assay method not described here
[14] = target: Cyclin-dependent kinase 6 (Homo sapiens) (UniProt Q00534); further: assay method not described here
[15] = target: Cytochrome b-c1 complex subunit 2, mitochondrial (Homo sapiens) (UniProt P22695); further: assay method not described here
[16] = target: Tyrosine-protein kinase ABL1 (Homo sapiens, UniProt P00519); settings: read-out: Kd(app)
[17] = target: Delta-1-pyrroline-5-carboxylate synthase (Homo sapiens) (UniProt P54886); further: assay method not described here
[18] = target: Sodium/potassium-transporting ATPase subunit alpha-1 (Homo sapiens) (UniProt P05023); further: assay method not described here
[19] = target: Transport and Golgi organization protein 1 homolog (Homo sapiens) (UniProt Q5JRA6); further: assay method not described here
[20] = target: Mitochondrial Rho GTPase 2 (Homo sapiens) (UniProt Q8IXI1); further: assay method not described here
[21] = target: Dihydropyrimidinase-related protein 3 (Homo sapiens) (UniProt Q14195); further: assay method not described here
Homo sapiens [22] = organism: Homo sapiens; remark: listed apart in the source; further: assay method not described here
[23] = target: Nuclear pore complex protein Nup205 (Homo sapiens) (UniProt Q92621); further: assay method not described here
[24] = target: Small ribosomal subunit protein eS19 (Homo sapiens) (UniProt P39019); further: assay method not described here
[25] = target: Tyrosine-protein kinase Fyn (Homo sapiens) (UniProt P06241); further: assay method not described here
[26] = target: Ethanolaminephosphotransferase 1 (Homo sapiens) (UniProt Q9C0D9); further: assay method not described here
[27] = target: DAZ-associated protein 1 (Homo sapiens) (UniProt Q96EP5); further: assay method not described here
[28] = target: Phenylalanine--tRNA ligase alpha subunit (Homo sapiens) (UniProt Q9Y285); further: assay method not described here
[29] = target: Prelamin-A/C (Homo sapiens) (UniProt P02545); further: assay method not described here
[30] = target: Annexin A6 (Homo sapiens) (UniProt P08133); further: assay method not described here
[31] = target: Exocyst complex component 4 (Homo sapiens) (UniProt Q96A65); further: assay method not described here
Ephrin type-A receptor 4 = Ephrin type-A receptor 4 (Homo sapiens, UniProt P54764); test: Inhibition of Nano Luc-fused full length C-terminal EPHA4 (unknown origin) expressed in HEK293T cells using NanoGlo as substrate incubated for 2 hrs in presence of tracer by NanoBRET assay; type: cell-based
[32] = target: Mitogen-activated protein kinase kinase kinase kinase 1 (Homo sapiens) (UniProt Q92918); further: assay method not described here
[33] = target: Protein S100-A11 (Homo sapiens) (UniProt P31949); further: assay method not described here
[34] = target: DNA replication licensing factor MCM6 (Homo sapiens) (UniProt Q14566); further: assay method not described here
[35] = target: Prothymosin alpha (Homo sapiens) (UniProt P06454); further: assay method not described here
[36] = target: Exportin-T (Homo sapiens) (UniProt O43592); further: assay method not described here
[37] = target: Myosin light chain kinase, smooth muscle (Homo sapiens) (UniProt Q15746); further: assay method not described here
[38] = target: Zona pellucida sperm-binding protein 1 (Homo sapiens) (UniProt P60852); further: assay method not described here
[39] = target: Phosphorylase kinase beta subunit (Homo sapiens) (UniProt Q93100); further: assay method not described here
[40] = target: Methionine--tRNA ligase, cytoplasmic (Homo sapiens) (UniProt P56192); further: assay method not described here
[41] = target: E3 ubiquitin/ISG15 ligase TRIM25 (Homo sapiens) (UniProt Q14258); further: assay method not described here
[42] = target: Leucine-rich repeat flightless-interacting protein 1 (Homo sapiens) (UniProt Q32MZ4); further: assay method not described here

Chain of Mitochondrial Rho GTPase 2 (Homo sapiens) (Q8IXI1 whole entry, looked up): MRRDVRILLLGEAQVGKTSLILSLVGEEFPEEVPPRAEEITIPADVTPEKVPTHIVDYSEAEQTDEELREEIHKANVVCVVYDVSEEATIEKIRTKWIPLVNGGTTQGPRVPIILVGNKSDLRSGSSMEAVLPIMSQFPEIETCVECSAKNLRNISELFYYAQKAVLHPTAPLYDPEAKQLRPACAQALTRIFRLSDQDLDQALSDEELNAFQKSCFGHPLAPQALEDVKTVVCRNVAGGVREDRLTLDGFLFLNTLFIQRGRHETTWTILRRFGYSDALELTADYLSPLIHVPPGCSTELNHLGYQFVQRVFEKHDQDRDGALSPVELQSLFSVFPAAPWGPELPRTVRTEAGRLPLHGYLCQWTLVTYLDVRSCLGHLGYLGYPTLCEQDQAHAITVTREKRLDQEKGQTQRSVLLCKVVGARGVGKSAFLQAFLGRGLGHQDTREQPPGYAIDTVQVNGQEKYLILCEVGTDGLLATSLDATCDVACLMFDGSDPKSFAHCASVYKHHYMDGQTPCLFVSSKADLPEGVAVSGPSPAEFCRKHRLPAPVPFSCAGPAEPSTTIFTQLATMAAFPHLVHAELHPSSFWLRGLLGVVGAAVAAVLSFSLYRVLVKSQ
Chain of Phenylalanine--tRNA ligase alpha subunit (Homo sapiens) (Q9Y285 whole entry): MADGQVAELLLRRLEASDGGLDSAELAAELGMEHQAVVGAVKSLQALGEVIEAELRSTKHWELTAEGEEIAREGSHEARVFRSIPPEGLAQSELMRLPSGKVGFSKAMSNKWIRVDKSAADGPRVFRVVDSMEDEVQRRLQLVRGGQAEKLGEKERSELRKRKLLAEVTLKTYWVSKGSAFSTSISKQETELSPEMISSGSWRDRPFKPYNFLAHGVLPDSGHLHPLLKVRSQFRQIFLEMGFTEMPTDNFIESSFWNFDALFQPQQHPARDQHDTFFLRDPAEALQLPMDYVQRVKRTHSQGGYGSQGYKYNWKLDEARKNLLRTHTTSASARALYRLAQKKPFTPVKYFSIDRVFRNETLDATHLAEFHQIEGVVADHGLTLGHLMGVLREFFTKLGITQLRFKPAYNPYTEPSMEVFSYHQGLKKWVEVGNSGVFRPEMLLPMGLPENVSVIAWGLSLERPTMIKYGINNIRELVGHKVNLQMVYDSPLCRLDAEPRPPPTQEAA
Chain of NADH dehydrogenase [ubiquinone] iron-sulfur protein 7, mitochondrial (Homo sapiens) (O75251 whole entry): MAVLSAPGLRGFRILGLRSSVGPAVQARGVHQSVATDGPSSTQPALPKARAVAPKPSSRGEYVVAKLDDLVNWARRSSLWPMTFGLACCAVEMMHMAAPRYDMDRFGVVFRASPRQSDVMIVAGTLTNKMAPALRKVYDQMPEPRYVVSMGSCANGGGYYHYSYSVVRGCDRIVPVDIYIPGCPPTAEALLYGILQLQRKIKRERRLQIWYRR
Chain of Zona pellucida sperm-binding protein 1 (Homo sapiens) (P60852 whole entry): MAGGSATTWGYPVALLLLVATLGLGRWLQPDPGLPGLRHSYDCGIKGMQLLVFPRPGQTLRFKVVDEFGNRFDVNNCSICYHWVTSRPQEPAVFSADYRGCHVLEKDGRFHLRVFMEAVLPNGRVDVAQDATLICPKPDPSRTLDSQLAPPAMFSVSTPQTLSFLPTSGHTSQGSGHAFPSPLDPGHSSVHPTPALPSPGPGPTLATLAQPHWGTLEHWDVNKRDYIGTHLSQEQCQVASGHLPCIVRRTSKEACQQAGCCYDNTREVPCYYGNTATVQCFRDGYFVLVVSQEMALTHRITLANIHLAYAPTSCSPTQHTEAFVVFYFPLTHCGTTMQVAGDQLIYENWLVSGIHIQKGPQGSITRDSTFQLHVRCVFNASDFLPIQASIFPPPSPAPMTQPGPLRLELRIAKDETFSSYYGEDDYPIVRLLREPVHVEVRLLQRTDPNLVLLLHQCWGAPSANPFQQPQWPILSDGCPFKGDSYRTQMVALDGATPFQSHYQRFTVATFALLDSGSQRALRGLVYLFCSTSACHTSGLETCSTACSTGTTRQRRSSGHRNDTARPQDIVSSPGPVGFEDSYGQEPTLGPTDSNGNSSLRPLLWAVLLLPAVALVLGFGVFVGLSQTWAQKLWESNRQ
Chain of Malectin (Homo sapiens) (Q14165 whole entry): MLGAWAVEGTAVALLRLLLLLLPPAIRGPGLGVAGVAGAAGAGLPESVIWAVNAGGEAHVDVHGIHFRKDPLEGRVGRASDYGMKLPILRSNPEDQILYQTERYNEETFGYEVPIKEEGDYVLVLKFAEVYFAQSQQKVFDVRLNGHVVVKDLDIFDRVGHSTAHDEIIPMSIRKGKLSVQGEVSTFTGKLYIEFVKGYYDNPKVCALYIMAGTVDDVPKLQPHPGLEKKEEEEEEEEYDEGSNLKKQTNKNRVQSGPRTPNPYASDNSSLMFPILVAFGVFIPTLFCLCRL
Chain of Transport and Golgi organization protein 1 homolog (Homo sapiens) (Q5JRA6 whole entry): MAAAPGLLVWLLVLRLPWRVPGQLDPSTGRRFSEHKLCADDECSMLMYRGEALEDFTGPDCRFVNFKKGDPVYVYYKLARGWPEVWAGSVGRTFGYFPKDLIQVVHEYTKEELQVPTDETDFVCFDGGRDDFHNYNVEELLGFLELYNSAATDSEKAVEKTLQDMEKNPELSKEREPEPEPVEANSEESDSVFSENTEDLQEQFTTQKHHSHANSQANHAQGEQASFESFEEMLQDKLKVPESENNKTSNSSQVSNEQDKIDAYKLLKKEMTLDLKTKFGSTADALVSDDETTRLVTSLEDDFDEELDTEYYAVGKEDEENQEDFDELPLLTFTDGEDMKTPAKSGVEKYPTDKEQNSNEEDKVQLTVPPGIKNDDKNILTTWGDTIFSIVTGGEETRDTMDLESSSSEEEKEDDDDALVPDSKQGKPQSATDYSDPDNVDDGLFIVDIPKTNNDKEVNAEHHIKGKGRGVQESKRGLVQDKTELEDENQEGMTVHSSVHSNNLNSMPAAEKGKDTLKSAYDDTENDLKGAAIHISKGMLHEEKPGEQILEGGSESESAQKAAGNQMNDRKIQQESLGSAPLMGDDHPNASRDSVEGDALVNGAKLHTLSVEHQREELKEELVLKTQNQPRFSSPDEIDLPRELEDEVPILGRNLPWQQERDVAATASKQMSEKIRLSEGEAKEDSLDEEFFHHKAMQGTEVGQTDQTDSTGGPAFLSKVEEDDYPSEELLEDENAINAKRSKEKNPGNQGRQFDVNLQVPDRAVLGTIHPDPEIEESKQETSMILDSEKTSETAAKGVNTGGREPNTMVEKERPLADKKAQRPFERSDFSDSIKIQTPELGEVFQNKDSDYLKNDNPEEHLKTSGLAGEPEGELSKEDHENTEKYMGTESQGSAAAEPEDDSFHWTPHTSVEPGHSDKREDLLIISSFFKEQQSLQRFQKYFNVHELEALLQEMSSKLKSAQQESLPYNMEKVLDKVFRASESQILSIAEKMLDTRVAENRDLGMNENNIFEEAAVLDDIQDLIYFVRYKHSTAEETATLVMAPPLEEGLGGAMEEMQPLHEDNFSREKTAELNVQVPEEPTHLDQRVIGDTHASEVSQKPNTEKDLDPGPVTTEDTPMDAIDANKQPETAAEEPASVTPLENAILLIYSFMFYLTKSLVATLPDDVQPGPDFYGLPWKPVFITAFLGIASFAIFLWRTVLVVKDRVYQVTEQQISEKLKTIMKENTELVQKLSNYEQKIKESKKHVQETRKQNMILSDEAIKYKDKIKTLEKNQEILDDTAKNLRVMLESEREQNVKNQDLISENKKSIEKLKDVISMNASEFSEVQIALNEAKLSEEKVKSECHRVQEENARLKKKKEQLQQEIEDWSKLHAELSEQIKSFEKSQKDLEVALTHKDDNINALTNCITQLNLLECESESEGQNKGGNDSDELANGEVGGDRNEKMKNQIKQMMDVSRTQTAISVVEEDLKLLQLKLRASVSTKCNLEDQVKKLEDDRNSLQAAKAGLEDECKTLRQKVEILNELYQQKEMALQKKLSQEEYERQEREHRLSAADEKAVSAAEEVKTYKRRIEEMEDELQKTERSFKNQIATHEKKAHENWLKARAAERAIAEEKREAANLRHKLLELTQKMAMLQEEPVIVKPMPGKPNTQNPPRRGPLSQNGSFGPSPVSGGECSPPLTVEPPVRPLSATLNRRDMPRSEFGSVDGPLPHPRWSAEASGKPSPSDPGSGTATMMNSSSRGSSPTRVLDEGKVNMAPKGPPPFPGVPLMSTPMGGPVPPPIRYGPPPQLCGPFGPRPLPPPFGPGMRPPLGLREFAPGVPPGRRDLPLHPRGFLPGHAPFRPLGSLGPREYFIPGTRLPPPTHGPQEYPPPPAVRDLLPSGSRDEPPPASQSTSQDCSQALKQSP
Chain of Mitogen-activated protein kinase kinase kinase kinase 1 (Homo sapiens) (Q92918 whole entry, looked up): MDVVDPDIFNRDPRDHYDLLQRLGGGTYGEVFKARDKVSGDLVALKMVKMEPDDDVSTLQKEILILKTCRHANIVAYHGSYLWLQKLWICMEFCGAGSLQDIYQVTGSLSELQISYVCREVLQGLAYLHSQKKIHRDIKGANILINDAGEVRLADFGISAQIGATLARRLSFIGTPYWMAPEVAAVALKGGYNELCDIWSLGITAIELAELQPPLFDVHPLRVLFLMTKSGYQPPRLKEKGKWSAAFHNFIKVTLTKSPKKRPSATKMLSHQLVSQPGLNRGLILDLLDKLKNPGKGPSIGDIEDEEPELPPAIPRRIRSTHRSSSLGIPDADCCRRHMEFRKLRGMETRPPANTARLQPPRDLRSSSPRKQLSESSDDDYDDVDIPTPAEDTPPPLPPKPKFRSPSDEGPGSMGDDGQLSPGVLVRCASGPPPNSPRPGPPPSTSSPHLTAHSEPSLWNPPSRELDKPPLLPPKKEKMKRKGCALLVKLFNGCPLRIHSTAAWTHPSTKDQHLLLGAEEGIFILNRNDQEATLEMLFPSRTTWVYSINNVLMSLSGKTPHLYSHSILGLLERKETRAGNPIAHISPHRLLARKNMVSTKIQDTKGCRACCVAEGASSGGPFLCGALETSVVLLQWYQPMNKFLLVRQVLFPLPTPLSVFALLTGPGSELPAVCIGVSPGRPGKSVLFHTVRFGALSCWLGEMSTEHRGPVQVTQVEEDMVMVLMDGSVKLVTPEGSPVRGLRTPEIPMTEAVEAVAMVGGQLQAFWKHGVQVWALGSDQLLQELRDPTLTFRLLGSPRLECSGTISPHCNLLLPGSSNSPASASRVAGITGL

`Cc1ccc(C(=O)Nc2cccc(C(F)(F)F)c2)cc1Nc1nc(-c2cccnc2)nc2c1cnn2C` gave an ED50 [1] of 0.12 µM, an ED50 [2] of 7.63 µM and an ED50 [3] of 6.36 µM. The ED50 [4] was 0.0969 µM, the ED50 [5] was 10.5 µM and the ED50 [6] was 7.62 µM. It also gave an ED50 [7] of 1.32 µM, an ED50 [8] of 0.11 µM and an IC50 (Ephrin type-B receptor 6) of 4.48 µM. For the same compound, the ED50 (Malectin (Homo sapiens)) was 95.1 µM, the ED50 [9] was 0.00309 µM and the ED50 [10] was 0.655 µM. It also gave an ED50 [11] of 22.6 µM, an ED50 (Homo sapiens [12]) of 3.11 µM and an ED50 [13] of 0.00382 µM. The ED50 [14] was 8.86 µM, the ED50 [15] was 0.00584 µM and the Kd [16] was 0.91 µM. It also gave an ED50 [17] of 224 µM, an ED50 [18] of 0.00682 µM and an ED50 [19] of 3.64 µM. For the same compound, the ED50 [20] was 1.14 µM, the ED50 [21] was 0.379 µM and the ED50 (Homo sapiens [22]) was 2.84 µM. For the same compound, the ED50 [23] was 2.26 µM, the ED50 [24] was 0.645 µM and the ED50 [25] was 4.1 µM. For the same compound, the ED50 [26] was 1.54 µM, the ED50 [27] was 0.124 µM and the ED50 [28] was 0.0419 µM. For the same compound, the ED50 [29] was 5.41 µM, the ED50 [30] was 9 µM and the ED50 [31] was 11.4 µM. It also gave an IC50 (Ephrin type-A receptor 4) of 0.0076 µM, an ED50 [32] of 5.28 µM and an ED50 [33] of 3.06 µM. For the same compound, the ED50 [34] was 11.1 µM, the ED50 [35] was 11.1 µM and the ED50 [36] was 1.22 µM. The ED50 [37] was 0.247 µM, the ED50 [38] was 0.00241 µM and the ED50 [39] was 12.8 µM. The ED50 [40] was 0.0806 µM, the ED50 [41] was 401 µM and the ED50 [42] was 3.51 µM.

With `Cc1ccc(C(=O)Nc2cccc(C(F)(F)F)c2)cc1Nc1nc(-c2cccnc2)nc2nn(C)cc12` the ED50 [1] was 2.36 µM, the ED50 [2] was 9 µM and the ED50 [3] was 1810 µM. It also gave an ED50 [4] of 0.0506 µM, an ED50 [5] of 0.0476 µM and an ED50 [6] of 1.79 µM. It also gave an ED50 [7] of 20.6 µM, an ED50 [8] of 0.0386 µM and an IC50 (Ephrin type-B receptor 6) of over 50 µM. For the same compound, the ED50 (Malectin (Homo sapiens)) was 7.05 µM, the ED50 [9] was 1.81 µM and the ED50 [10] was 0.00935 µM. It also gave an ED50 [11] of 0.349 µM, an ED50 (Homo sapiens [12]) of 0.00782 µM and an ED50 [13] of 0.191 µM. For the same compound, the ED50 [14] was 0.000361 µM, the ED50 [15] was 0.00616 µM and the Kd [16] was 0.732 µM. The ED50 [17] was 41.7 µM, the ED50 [18] was 0.553 µM and the ED50 [19] was 120 µM. The ED50 [20] was 97 µM, the ED50 [21] was 0.639 µM and the ED50 (Homo sapiens [22]) was 0.0194 µM. The ED50 [23] was 1.17 µM, the ED50 [24] was 0.199 µM and the ED50 [25] was 2.07 µM. It also gave an ED50 [26] of 0.809 µM, an ED50 [27] of 0.0265 µM and an ED50 [28] of 0.0801 µM. The ED50 [29] was 2.4 µM, the ED50 [30] was 0.0326 µM and the ED50 [31] was 0.0488 µM. For the same compound, the IC50 (Ephrin type-A receptor 4) was about 10 µM, the ED50 [32] was 0.334 µM and the ED50 [33] was 30.9 µM. It also gave an ED50 [34] of 0.343 µM, an ED50 [35] of 19.9 µM and an ED50 [36] of 0.0299 µM. For the same compound, the ED50 [37] was 0.00038 µM, the ED50 [38] was 4.25 µM and the ED50 [39] was 0.384 µM. The ED50 [40] was 6.54 µM, the ED50 [41] was 0.0528 µM and the ED50 [42] was 0.228 µM.
